# Reference: patent US20140024683A1, “CHLORIDE CHANNEL AND CHLORIDE TRANSPORTER MODULATORS FOR THERAPY IN SMOOTH MUSCLE DISEASES” (priority 2011, published 2014)
# Several values for one entry are separate records, joined by “and”; a condition that tells them apart may be missing. Identical values can stand only once. Like-named read-outs stand apart in the source and are kept apart here.
# Experiments:
# [1] = tested on: guinea pig tracheal rings; assay: Potentiation of isoproterenol relaxation of acetylcholine contraction, guinea pig tracheal rings; settings: 50 μM compound 13
# Method: (§1) Animal protocols were approved by the Columbia University Animal Care and Use Committee. Male Hartley guinea pigs weighing approximately 400 g were anesthetized with intraperitoneal injection of sodium pentobarbital (100 mg/kg). Trachea were removed and transferred to ice cold Krebs-Henseleit (KH) buffer of the following composition (in mM): NaCl 118, KCl 5.6, CaCl2 0.5, MgSO4 0.24, NaH2PO4 1.3, NaHCO3 25, glucose 5.6, pH 7.4. Epithelial-denuded tracheal rings were prepared using a dissecting microscope. Epithelium was removed by gently passing cotton fibers through the lumen of the tracheal rings. The rings were suspended in 4 mL-water jacketed organ baths (37° C.: Radnoti Glass Technology, Monrovia, Calif.) and connected to a Grass FT03 force transducer (Grass Telefactor, West Warwick, R.I.) using silk sutures. The transducers were coupled to the computer with BioPac hardware and data was collected using Acqknowledge 7.3.3 software (BioPac Systems, Goleta, Calif.). KH buffer was bubbled with a gas mixture of 95% oxygen and 5% carbon dioxide and buffer was exchanged every 15 minutes for 1 hour during equilibration of tracheal rings at 1 g resting tension. […].
# Therefore, we tested whether the chloride channel blockers or modulation of chloride flux could be used in combination with β-agonists to potentiate their effects. […]. Therefore, a combination of treatment with compound 13 and bumetanide potentiated the relaxation effect of isoproterenol.
# [2] = tested on: Ca^2+-activated chloride channel; assay: Patch-clamp analysis of spontaneous transient inward currents (STICs)
# [3] = tested on: guinea pig tracheal rings; assay: Relaxation of the maintenance phase of a pre-established acetylcholine contraction, guinea pig tracheal rings; settings: 100 μM alone; pre-contracted with EC50 acetylcholine
# Method: as §1
# Chloride channel blockers were then tested against the plateau phase of an established acetylcholine contraction. […]
# [4] = tested on: human airway smooth muscle; assay: Relaxation of acetylcholine contraction in human airway smooth muscle strips; settings: 100 μM alone; EC50 acetylcholine
# Method: Studies using de-identified human tissue were reviewed by the Columbia University Institutional Review Board and deemed not human subjects research. Tissues were obtained from healthy, normal organ donor discarded surgical waste subsequent to lung transplant surgery. Tissues were collected after transplant and placed in DMEM media (GIBCO) and bubbled overnight in 5% carbon dioxide and 95% oxygen at 4° C. The following morning, the smooth muscle tissue was carefully dissected under a dissecting microscope and the epithelium removed. The strips were anchored in the organ bath as described above using KH buffer of the same composition. The strips were allowed to equilibrate for 1 hour with buffer exchanges every 15 minutes and were treated with 10^−6 M tetrodotoxin, 10^−5 M pyrilamine, and 10^−5
# M MK571. Strips were contracted with an EC50 dose of acetylcholine (Ach)
# This experiment was then repeated with human airway smooth muscle to investigate clinical relevance as a model of bronchospasm in humans.
# [5] = tested on: guinea pig tracheal rings; assay: Relaxation of potassium gluconate contraction in guinea pig tracheal rings; settings: 100 μM; 80 mM potassium gluconate
# Method: as §1
# Many chloride channel blockers are known to also stimulate potassium channels (Greenwood et al., 2007). Thus, we performed additional studies in the presence of a large extracellular concentration of potassium to ensure that our findings of compound 1 or 13 inhibiting a TEA-induced depolarizing contraction were not due to these compounds opening a potassium channel.
# [6] = tested on: guinea pig tracheal rings; assay: Relaxation of TEA contraction in guinea pig tracheal rings (Example 16, library screen); settings: 10 mM TEA
# Method: as §1
# [7] = tested on: human airway smooth muscle cells; assay: FLIPR membrane potentiometric dye assay (Example 21); format: cell-based
# Method: Immortalized airway smooth muscle cell lines modified to stably express human telomerase reverse transcriptase were a kind gift from Dr. William Gerthoffer (University of Southern Alabama, Mobile, Ala.) prepared as described previously (Gosens et al., 2006) and grown in Dulbecco's Modified Eagle's Medium/F12 media (GIBCO, Grand Island, N.Y.), with 10% FBS and antibiotics.
# Immortalized human airway smooth muscle cells were cultured on black-walled 96 well plates to 100% confluence, and were washed four times with warmed (37° C.) assay buffer of the following composition (in mM): NaCl 140, KCl 4.7, CaCl2 2.5, MgCl2 1.2, HEPES 11, D-glucose 10. A stock solution (100% dye) of FLIPR blue dye was prepared by reconstitution of 1 vial (125 mg) with 100 ml assay buffer. A 50% working stock was prepared by further diluting the reconstituted blue dye 1:1 with assay buffer and was used to load cells (90 μl/well) over 45 min at 37° C. in a humidified cell culture incubator (95% air/5% CO2). All reagents were dissolved in assay buffer. Fluorescence was measured with a Flex Station 3 (Molecular Devices) using an excitation wavelength of 530 nm, emission wavelength of 565 nm and a cutoff filter of 550 nm. Baseline fluorescence was measured every 2 seconds for 1 minute then for 2 minutes after injection of vehicle or compound of interest as indicated (using the Flexstation's 3 integrated injection capabilities).
# Human airway smooth muscle cells were incubated with FLIPR membrane potentiometric dye to assess if the chloride channel blockers changed membrane potential at the cellular level. FLIPR fluorescence will increase with depolarization, and decrease with hyperpolarization. […] Therefore, chloride channel blockade, but not NKCC blockade, hyperpolarized human airway smooth muscle cells.
# [8] = tested on: human airway smooth muscle cells; assay: Whole cell current clamp recording of membrane potential; format: cell-based
# Method: Induced electrophysiological changes in membrane potential and current were measured using traditional whole cell patch clamp methods. Immortalized human airway smooth muscle cells were grown to confluence on collagen-treated T25 flasks. Collagenase type IV in SmBM2 medium (Lonza, Walkersville, Md.) was used to release cells adherent to the collagen matrix in the flask. Medium with cells in suspension was then harvested in a 10-ml conical tube and centrifuged at 300×g. Supernatant was removed, and the pellet was resuspended in SmBM2 medium and transferred into collagen-treated glass bottom 1-cm Petri dishes at about 10% confluence. Each dish was then incubated at 37° C. and 5% CO2 for 1-4 hours for reattachment of cells to glass-bottom Petri dishes.
# Glass-bottom dishes served as a disposable recording chamber. ALA VM-8, an 8-chamber pressure-driven drug application system, was used in a still bath of extracellular salt solution. Whole-cell intracellular voltage recordings under current clamp conditions were performed with a 2-kHz Bessel filter, recording at 10 kHz using an Axopatch 200b amplifier (Axon Instruments, Foster City, Calif., USA). Electrodes were pulled using a P-97 micropipette puller from 1.5-mm OD borosilicate capillary glass (Sutter Instruments, Novato, Calif., USA). Glass electrode resistances ranged from 5 to 10 MO with intracellular solution. Whole-cell intracellular current recordings under voltage-clamp conditions were performed with a 2-kHz Bessel filter, recording at 10 kHz using an Axopatch 200b amplifier. For current measurements (FIG. 11) intracellular solutions consisted of (in mM) 140 TEA-Cl, 5 MgATP, 5 EGTA, 1 MgCl2, 10 HEPES, and 5 CaCl2 (pH 7.2). Extracellular solution consisted of (in mM) 134 NaCl, 1.4 KCl, 10 HEPES, 1 MgCl2, 1.8 CaCl2, and 10 glucose (pH 7.4). This induced the classic spontaneously transient inward currents (STICs) and spontaneously transient outward currents (STOCs) well described in this cell type. STOCs are believed to represent activation of calcium activated potassium (KCa) channels while STICs are believed to represent activation of CaCCs. TEA-Cl was included in the buffer to enhance STICs which were then recorded during the addition of 100 μM niflumic acid. When recording TEA- and niflumic acid-induced responses on membrane potential (ΔmV), the intracellular solutions contained (in mM) 140 KCl, 5 MgATP, 5 EGTA, 1 MgCl2, 10 HEPES, and 5 CaCl2 (pH 7.2), and the extracellular solutions consisted of (in mM) 134 NaCl, 5 MgATP, 5 EGTA, 1 MgCl2, 10 HEPES, and 5 CaCl2 (pH 7.2). All recordings were analyzed on Clampfit 8.0 software (Molecular Devices).
# [9] = tested on: human airway smooth muscle cells; format: cell-based
# Method: This buffer was exchanged at 100 μl/well just before starting the measurement of fluorescence. […] In separate experiments the effect of extracellular chloride concentrations on SOCE was measured by the predepletion of extracellular calcium in low or high chloride buffer (55 mM versus 110 mM NaCl, osmotically balanced with Na gluconate) in the presence of thapsigargin to deplete intracellular calcium stores. Calcium induced fluorescence changes were measured with the reintroduction of 2 mM extracellular CaCl2.
# rat lung slices = assay: Airway lumen area in peripheral small airways of rat lung slices; settings: contractile agonists
# Method: The measurement of airway contraction of a luminal area of small lung airways using the ex vivo rat lung slice method was performed as described (Perez-Zoghbi et al., 2007). The trachea was cannulated with an intravenous catheter, and after the chest cavity was opened, the collapsed lungs were reinflated with 1.3±0.1 ml of 2% agarose (low-gelling temperature) in Sigma-Hanks' Balanced Salt solution (sHBSS), followed by the injection of 0.2±0.1 of air to flush the agarose-sHBSS out of the airways and into the distal alveolar space. Subsequently, a warm (37° C.) solution of gelatin (type A, porcine skin, 300 bloom, 6% in sHBSS) was perfused through the intrapulmonary blood vessels via the pulmonary artery by injecting about 0.3 ml into the right ventricle. The warm agar and gelatin were gelled with cold sHBSS. A single lung lobe was removed and cut into serial sections of about 130 μm thick with a vibratome at about 4° C., starting at the lung periphery. Slices were maintained in DMEM (Invitrogen) at 37° C. and 10% CO2 for up to 3 days. At 37° C., the gelatin in the blood vessel lumen dissolved, leaving the blood vessel lumen empty. Lung slices were mounted in a custom-made perfusion chamber and held in place with a small sheet of nylon mesh. A second cover glass edged with silicone grease was placed over the lung slice. Perfusion of the lung slice was performed using a gravity-fed perfusion system. The volume of the chamber was about 100 μl with a perfusion rate of about 800 μl/min. […] Digital images were recorded in time lapse (30 frames/min). The area of the bronchiole and arteriole lumen was calculated, from each image, by pixel summing using custom-written software. Experiments were performed at room temperature.
# RhoA = settings: 10 mM TEA-acetate, 2 minutes
# Method: FIG. 8 is a bar graph showing RhoA activation in human airway smooth muscle cells.
# Measurement of activated rhoA in cultured human airway smooth muscle cells were conducted as follows. […] Reaction was stopped by solubilizing cells in buffer. Following clearance of non-solubilized cell material, the solubilized cells were reacted with Rhotekin bound to beads, which isolated activated RhoA from total RhoA. Fractions were then analyzed on a commercially available ELISA plate that quantitates activated versus total RhoA (Cytoskeleton, Inc.)
# [10] = tested on: guinea pig tracheal rings; assay: Ex vivo airway smooth muscle force, prevention or relaxation of a contraction (Example 5); settings: solo therapy; vs vehicle
# Method: The chloride channel blocker NPPB and the chloride transporter blocker bumetanide were evaluated for their ability to prevent an initial contraction (n=5) (FIG. 23A) or to relax an existing contraction (n=6) (FIG. 23B).
# As a proof of concept for chloride channel blockade in general, another chloride channel blocker, 5-nitro-2-(3-phenylpropylamino)-benzoic acid (NPPB) was used in an ex vivo guinea pig airway smooth muscle model.
# [11] = 10 μM compound 13 and bradykinin, n=5
# [12] = 10 μM compound 13 plus 30 μM bradykinin, n=5
# [13] = compound 13 under basal conditions, n=9
structure (smiles),measurement,setting,value
"O=C(O)c1cc(Cl)ccc1NCc1cccc2ccccc12 [compound 13, 5-chloro-2-(1-naphthylmethylamino)benzoic acid]",shift of the EC50 of isoproterenol,[1],2.2 fold
same,amplitude of STICs,"[2]; 10 μM compound 13 alone, n=9",0.44±0.09 fold change with control normalized to 1
same,frequency of STICs,"[2]; 10 μM compound 13 alone, n=9",0.4±0.1 fold change with control normalized to 1
same,amplitude of STICs compared to control,[2]; [11],46%
same,frequency of STICs compared to control,[2]; [11],40%
same,amplitude of STICs,[2]; [12],0.46±0.13 fold change with control normalized to 1
same,frequency of STICs,[2]; [12],0.4±0.14 fold change with control normalized to 1
same,amplitude of STICs,[2]; [13],44 % of control
same,frequency of STICs,[2]; [13],40 % of control
same,relaxation of established acetylcholine contraction,[3],60.1%±5.7
same,relaxation of acetylcholine contraction,[4],52.5%±8.1
same,percent of potassium gluconate-induced contraction at 30 minutes,[5],68.17%±4.9 and 68.2%±4.9
same,percent of the TEA-induced contraction remaining at 15 minutes,[6]; 100 μM,61.0±10.1%
same,relaxed fraction of a TEA-induced contraction at 15 minutes after drug addition,[6]; 100 μM,39.0%
same,relaxation of TEA-induced contraction (screen of 20-compound chloride channel blocker library),[6],most potently relax
same,"change in relative fluorescent units (membrane potential, FLIPR)","[7]; 100 μM, n=12",−264.2+/−40 RFU
"CC[N+](CC)(CC)CC.[Cl-] [TEA, tetraethylammonium chloride]","membrane potential (current clamp, whole cell)",[8]; 10 mM TEA-Cl,depolarized the cell
same,intracellular calcium (fluo4-AM fluorescence),[9]; 10 mM TEA,does not increase intracellular Ca^2+
same,percent decrease in lumen area compared to rest,rat lung slices,significant decrease in lumen area
same,RhoA activation,RhoA,activates rhoA
"O=C([O-])[C@H](O)[C@@H](O)[C@H](O)[C@H](O)CO.[K+] [K gluconate, potassium gluconate]","membrane potential (current clamp, whole cell)",[8]; 60-75 mM potassium (K)-gluconate,depolarized the cell
same,intracellular calcium (fluo4-AM fluorescence),[9],increased calcium
same,"membrane potential, continuous fluorescence recording (representative tracing)",[7],depolarizes
"O=C(O)c1cc([N+](=O)[O-])ccc1NCCCc1ccccc1 [NPPB, 5-nitro-2-(3-phenylpropylamino)-benzoic acid]",relaxation of an existing contraction,[10],effective in relaxing an existing contraction
same,percent of potassium gluconate-induced contraction at 30 minutes,[5],56.71%±10.6 and 56.7%±10.6
